Measured values published in article PMC5722318, “Absence of anti-hypocretin receptor 2 autoantibodies in post pandemrix narcolepsy cases” (PLoS ONE, 2017).
Where two headings read alike, the source gives them in different places.

Tested on: DQ0602
Type: binding, human
Details: for % Read #1 / Read #1: replicate 1; for % Average: mean of two reads; for % Read #2 / Read #2: replicate 2; for Average: mean of the two raw reads; for Read #1 / Read #2: raw signal read
[1] = % of Bio-EBV binding, first assay (02/04/2016, 07/15/2016 or 08/11/2016, by peptide)
[2] = % of Bio-EBV binding, repeat assay (07/19/2016, 07/18/2016 or 08/12/2016, by peptide)
[3] = first assay (02/04/2016, 07/15/2016 or 08/11/2016, by peptide)
[4] = repeat assay (07/19/2016, 07/18/2016 or 08/12/2016, by peptide)

| Sequence | Average (two assays) | mean of Bio-EBV epitope binding ± SD (40 μM competitor peptide, 25 nM DQ0602, 100 nM HLA-DM, 1 μM Bio-EBV, acetate pH 4.6, 3 days at 37°C, duplicate, Eu-streptavidin TRF, lower percentage = stronger competitor) | % Read #1 (% of Bio-EBV binding (Bio-EBV average = 100), first assay (02/04/2016, 07/15/2016 or 08/11/2016, by peptide)) | % Average [1] | % Average [2] | % Read #1 [2] | % Read #2 [1] | % Read #2 [2] | Average [3] | Average [4] | Read #1 (first assay (02/04/2016, 07/15/2016 or 08/11/2016, by peptide), competition against Bio-EBV epitope) | Read #1 [4] | Read #2 [3] | Read #2 [4] | binding to DQ0602 (in words) (competition with Bio-EBV epitope, 40 μM peptide, […]) |
| --- | --- | --- | --- | --- | --- | --- | --- | --- | --- | --- | --- | --- | --- | --- | --- |
| HDSNKGVTAACPH [HA143-155 146N, synthetic 13-mer hemagglutinin peptide containing wild-type 146N] | 43.7826% | 43.78% ± 1.34% | 41.1935% | 42.8329% | 44.7324% | 43.7047% | 44.4722% | 45.7602% | 8060.5 | 7464.5 | 7752 | 7293 | 8369 | 7636 | – |
| YDDEEFLRYLWR [HCRTR2_34-45] | – | – | – | – | – | – | – | – | – | – | – | – | – | – | did not appear to bind to DQ0602 |
